Results from patent US6803046B2, “Sincalide formulations” (Bracco International B.V., priority 2002, dated 2004).

What was measured:
[1] = Effect of surfactants on sincalide recovery (RP-HPLC); type: physicochemical; conditions: for sincalide recoveries: formulations containing trace levels (2.5-7.5 μg/mL) of the surfactant
From the text: During the preliminary developmental studies of a new formulation that consisted of bulking agent/tonicity adjuster, buffer, salt, chelator, and sincalide, it was observed by HPLC analysis that the recovery of the active pharmaceutical ingredient, sincalide, in the bulk solution was sensitive to standing open to air. […] Although to some extent, this sincalide decrease can be accounted for by an increase in the presence of sincalide mono- and disulfoxide degradants, these represent only a very minor percentage of the decreases noted. Thus the decrease in recovery is thought to be attributed to either adsorption/denaturing or air/liquid interface effects. To minimize sincalide degradation associated with surface adsorption, surfactants are added as formulation excipients in bulk and lyophilized formulations of sincalide.
Sincalide formulations consisting of a bulking agent/tonicity adjuster (D-mannitol), buffer (mono- and dibasic potassium phosphate), salt (sodium/potassium chloride) for tonicity, chelator (pentetic acid), and active ingredient (sincalide) were prepared using varying concentrations of the nonionic surfactant, polysorbate 80 (TWEEN® 80). Bulk solution and reconstituted lyophilized samples were either stoppered immediately or left unstoppered for 17 hours, and were assayed for sincalide recovery by reversed-phase gradient elution HPLC at 215 nm. […]
An additional experiment was performed to confirm the effect of the concentration of TWEEN® 20 in terms of sincalide recovery in both air exposed and sealed bulk formulation. Sincalide recovery, determined for bulk formulation (75.0 mg/mL D-mannitol, 6.0 mg/mL KCl, 3.25 mg/mL KH2PO4, 1.0 mg/mL DTPA, 0.0025 mg/mL sincalide) containing varying trace levels of TWEEN® 20 stored in open or closed vials using reversed-phase gradient elution HPLC, is shown in Table 10. […]

[2] = Effect of antioxidants on sincalide formulation stability (HPLC); conditions: for % Sincalide / % Total Sincalide-Related Impurities: antioxidant 10 μg/mL; for effect of antioxidant on sincalide stability (in words): antioxidant 10 μg/mL in reconstituted sincalide formulation, over 15 hours
Procedure: An experiment was performed to evaluate the addition of antioxidants as stabilizing agents to prevent sincalide oxidation in formulations of sincalide (formulations for Example 4 contained 85 mg/mL mannitol, 0.005 mg/mL TWEEN® 20, 2.75 mg/mL KH2PO4, 1.0 mg/mL DTPA, 2.0 mg/mL methionine, 7.5 mg/mL lysine, 15 mg/mL arginine, 0.0025 mg/mL sincalide (Bulk formulation), except placebos which contained no sincalide.) The formation of sincalide methionine (Met 3 or Met 6) monosulfoxides, desulfated sincalide and unknown degradants was investigated. The effectiveness of sodium metabisulfite, ascorbic acid, cysteine, glutathione, sodium sulfate, benzalkonium chloride, and benzethonium chloride in inhibiting the degradation of sincalide in terms of their effect on sincalide recovery and sincalide-related impurities, was evaluated by HPLC.
The effect of various antioxidants on the stabilization of sincalide was evaluated on open and sealed sincalide formulations over 15 hours. The antioxidants were separately added at a concentration of 10 μg/mL to water-reconstituted lyophilized sincalide formulations containing all formulation ingredients except antioxidant. Spiked and unspiked solutions were pooled, subdivided, and either exposed to or protected from air over 15 hours. The sincalide and total sincalide-related impurities were monitored by reversed-phase HPLC with gradient elution and UV detection at 215 nm to compare the effectiveness of the antioxidants.
To optimize the level of sodium metabisulfite in the formulation, lyophilized sincalide formulations were prepared containing four levels of sodium metabisulfite (0, 10, 30, and 60 μg/vial), as summarized in Table 13. Samples at each concentration were maintained under unstressed and stressed (65 ° C., 64 hours) storage conditions, and were subsequently assayed by HPLC. The “% sincalide” was determined, and the “% (Met 6) monosulfoxide” (tR≈19.7 min.) was monitored as an indication of sincalide oxidation.
Another experiment was conducted under longer-term accelerated storage conditions utilizing a sincalide formulation with the optimized concentration (40 μg/vial) of sodium metabisulfite to confirm the protective effect on the degradation of sincalide. Sincalide lyophilized formulations with and without the antioxidant from the same batch were heat-stressed at 40° C. and 60° C. for 6 weeks. Also, formulations without sincalide from the same batch were heat-stressed at 40° C. for 8 months.

[3] = Effect of amino acids on sincalide recovery and related impurities; type: physicochemical; conditions: for improvement in sincalide recovery vs control without lysine: lyophilized formulations
Procedure: Experiments were conducted to evaluate several amino acids as potential stabilizers of sincalide, including the non-polar (hydrophobic) methionine residue, aspartic acid and glutamic acid, the polar glycine and cysteine residues, and the basic lysine and arginine amino acids. […]
For comparison to the non-polar amino acid methionine as a potential processing stabilizer, polar amino acids such as glycine and cysteine were also evaluated. Formulations containing these amino acids were exposed to air in open vials and compared to product in closed vials. […] Table 23 presents the sincalide recoveries for experimental formulations containing variable concentrations of methionine, cysteine or glycine. […]

[4] = Table 23, bulk formulation, amino acid 2.0 mg/mL Bulk
[5] = Table 23, bulk formulation, amino acid 2.5 mg/mL Bulk
[6] = bulk formulation, L-Methionine 0.00 mg/mL Bulk
[7] = bulk formulation, L-Methionine 0.025 mg/mL Bulk
[8] = bulk formulation, L-Methionine 0.50 mg/mL Bulk
[9] = bulk formulation, L-Methionine 2.0 mg/mL Bulk

% Sincalide ([2]; Open, 1 h) [%] | % Total Sincalide-Related Impurities ([2]; Open, 1 h) [%] | % Sincalide ([2]; Open, 8 h) [%] | % Total Sincalide-Related Impurities ([2]; Open, 8 h) [%] | % Sincalide ([2]; Open, 15 h) [%] | % Total Sincalide-Related Impurities ([2]; Open, 15 h) [%] | % Sincalide ([2]; Sealed, 0 h) [%] | % Total Sincalide-Related Impurities ([2]; Sealed, 0 h) [%] | % Sincalide ([2]; Sealed, 7 h) [%] | % Total Sincalide-Related Impurities ([2]; Sealed, 7 h) [%] | % Sincalide ([2]; Sealed, 14 h) [%] | % Total Sincalide-Related Impurities ([2]; Sealed, 14 h) [%] | Compound | other results
– | – | – | – | – | – | – | – | – | – | – | – | polysorbate 80 [TWEEN ® 80] | sincalide recoveries [1]: 95-98%
98.1 | 1.94 | 98.2 | 1.85 | 97.9 | 2.13 | 98.1 | 1.90 | 98.3 | 1.74 | 98.2 | 1.82 | N[C@@H](CCC(=O)N[C@@H](CS)C(=O)NCC(=O)O)C(=O)O [Glutathione] | –
– | – | – | – | – | – | – | – | – | – | – | – | N[C@@H](CS)C(=O)O [L-Cysteine] | Related impurities (%), Closed [3, 4]: 1.0%; Related impurities (%), Open [3, 4]: 31.0%
97.8 | 2.20 | 97.7 | 2.32 | 98.0 | 2.05 | 98.2 | 1.85 | 98.1 | 1.87 | 98.1 | 1.91 | N[C@@H](CS)C(=O)O [Cysteine] | –
82.7 | 17.3 | 88.4 | 11.6 | 82.9 | 17.1 | 97.8 | 2.21 | 97.7 | 2.34 | 97.4 | 2.58 | Benzalkonium Chloride | –
98.2 | 1.76 | 98.3 | 1.69 | 98.2 | 1.79 | 98.3 | 1.67 | 98.3 | 1.66 | 98.3 | 1.73 | O=S([O-])S(=O)(=O)[O-].[Na+].[Na+] [Sodium Metabisulfite] | –
– | – | – | – | – | – | – | – | – | – | – | – | CSCC[C@H](N)C(=O)O [L-Methionine] | Related impurities (%), Closed [3, 4]: 0.7%; Related impurities (%), Open [3, 4]: 6.4%; Related impurities (%), Closed [3, 5]: 0.7%; Related impurities (%), Open [3, 5]: 10.5%; Related impurities (%), Closed [3, 6]: 1.3%; Related impurities (%), Open [3, 6]: 52.7%; Related impurities (%), Closed [3, 7]: 1.0%; Related impurities (%), Open [3, 7]: 35.9%; Related impurities (%), Closed [3, 8]: 0.8%; Related impurities (%), Open [3, 8]: 19.3%; Related impurities (%), Closed [3, 9]: 0.7%; Related impurities (%), Open [3, 9]: 15.0%
– | – | – | – | – | – | – | – | – | – | – | – | NCCCCC(N)C(=O)O (racemic) [DL-Lysine] | improvement in sincalide recovery vs control without lysine ([3]; 3 weeks storage at 40° C.): 50%; improvement in sincalide recovery vs control without lysine ([3]; 5 weeks storage at 40° C.): 75%
– | – | – | – | – | – | – | – | – | – | – | – | NCC(=O)O [L-Glycine] | Related impurities (%), Closed [3, 4]: 1.1%; Related impurities (%), Open [3, 4]: 51.1%; Related impurities (%), Closed [3, 5]: 1.6%; Related impurities (%), Open [3, 5]: 44.9%
– | – | – | – | – | – | – | – | – | – | – | – | polyoxyethylene sorbitan monolaurate [TWEEN ® 20] | foaming in the reconstituted product upon vigorous stirring ([1]; 2-mL filled vials, TWEEN 20 concentration of 5 μg/mL): slight foaming; sincalide recoveries [1]: 98-102%
98.0 | 2.00 | 98.0 | 2.01 | 97.8 | 2.16 | 98.1 | 1.95 | 98.0 | 2.05 | 97.8 | 2.25 | O=C1O[C@H]([C@@H](O)CO)C(O)=C1O [Ascorbic Acid] | –

Compound | % Sincalide ([2]; Open, 1 h) [%] | % Total Sincalide-Related Impurities ([2]; Open, 1 h) [%] | % Sincalide ([2]; Open, 8 h) [%] | % Total Sincalide-Related Impurities ([2]; Open, 8 h) [%] | % Sincalide ([2]; Open, 15 h) [%] | % Total Sincalide-Related Impurities ([2]; Open, 15 h) [%] | % Sincalide ([2]; Sealed, 0 h) [%] | % Total Sincalide-Related Impurities ([2]; Sealed, 0 h) [%] | % Sincalide ([2]; Sealed, 7 h) [%] | % Total Sincalide-Related Impurities ([2]; Sealed, 7 h) [%] | % Sincalide ([2]; Sealed, 14 h) [%] | % Total Sincalide-Related Impurities ([2]; Sealed, 14 h) [%] | other results
CC(C)(C)CC(C)(C)c1ccc(OCCOCC[N+](C)(C)Cc2ccccc2)cc1 [Benzethonium Chloride] | 92.1 | 7.93 | 88.0 | 12.0 | 92.6 | 7.36 | 97.9 | 2.13 | 98.0 | 1.98 | 98.0 | 1.96 | effect of antioxidant on sincalide stability (in words) [2]: significant destabilizing effect
O=S(=O)([O-])[O-].[Na+].[Na+] [Sodium Sulfate] | 98.3 | 1.70 | 98.2 | 1.78 | 98.1 | 1.92 | 98.2 | 1.76 | 98.1 | 1.90 | 98.2 | 1.81 | effect of antioxidant on sincalide stability (in words) [2]: essentially equivalent to the control formulation
